Measured values from patent US20140186306A1, “NOVEL AMPK AGONIST COMPOSITIONS AND METHODS OF USE” (priority 2012, published 2014).

Legend:
[1] = human, in vivo, cited from earlier work
[2] = system: horses with joint and/or soft tissue lameness; assay: Clinical response of racing and non-racing horses with joint and/or soft tissue lameness to AICAR injected intra-articularly or locally infiltrated; format: in vivo, horse; conditions: all treated horses; localized injection of 1.3 mg/ml AICAR
Experimental: In the examples below the novel or test composition indicated as NOVEL was comprised of 1.3 mg/ml solutions of AICAR. The purpose of this study was to evaluate the clinical response of racing and non-racing horses with joint and/or soft tissue lameness to various doses of AICAR, either injected intra-articularly or locally infiltrated into the affected soft tissue structure. […] In most cases, multiple joints or soft tissue structures per animal were treated. In some cases, joints and soft tissue structures were injected simultaneously.
Addition of 0.5 ml of an aminoglycoside antibiotic per 2.5 ml vial of AICAR was left up to the discretion of the attending veterinarian. Prior to the treatment, each case was graded for lameness, swelling and heat, and pain. Each injected joint received either one, 1.3 mg/ml, 2.5 ml dose (3.25 mg) for a small joint, or two, 2.5 ml dose vials for large (stifle) joints. Soft tissue structures, including tendons and tendon sheaths, suspensory ligaments, exostoses (splints), periosteal osteitis, and perineural injections were done with multiple vials of the AICAR. The dose was dependent upon the perceived surface area to be treated. The horses were re-examined at various times post-injection as most horses were stabled at locations remote to the veterinarians. All cases were followed up by telephone calls to trainers/caretakers within 24 hours. […]

mice = conditions: oral dose of 500 mg/Kg/day over a 4 week period; cited from earlier work

NC(=O)c1ncn([C@@H]2O[C@H](CO)[C@@H](O)[C@H]2O)c1N [AICAR, 5-amino-1-β-D-ribofuranosyl-imidazole-4-carboxamide]
oral bioavailability ([1]; po): less than 5%
plasma clearance [1]: 36.7 mL/min/kg
adverse events [2]: No adverse events were reported with the exception of transient swelling of a fetlock that was traumatically injected
performance-enhancing activity (mice): performance-enhancing activity
